How the values were obtained:
RIPK2 enzyme = target: T1, RIPK2 enzyme (Homo sapiens, UniProt O43353); test: RIPK2 inhibition (ADP-Glo Kinase Assay); format: biochemical; settings: RIPK2 5 nM, ATP 150 μM, MBP substrate, read-out: RIPK2 IC50
T1 construct: purchased Carna 09-128
In short: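 Swine MBP substrate; compound and 5 nM RIPK2 first mixed for 30 min at room temperature; buffer pH 7.5 HEPES 50 mM with 10 mM MgCl2, 2 mM DTT, 1 mM EGTA, Brij-35, BSA.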

human NOD2 signaling = test: Inhibition of human NOD2 signaling in HEK-Blue-hNOD2 cells (L18-MDP stimulated, SEAP reporter); format: cell-based; settings: Homo sapiens, HEK-Blue hNOD2, HEK-Blue-hNOD2 cells, NOD2 ligand stimulation, SEAP reporter; read-out: hNOD2 IC50
In short: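 Read-out is SEAP absorbance at 620 nm after 3 h QUANTI-Blue development of supernatant from HEK293 cells carrying NOD2 and a SEAP reporter (12500/well). Cells got compound (10 points, 3-fold dilutions) and 0.5 ng/mL L18-MDP for 24 h at 37 °C; percent inhibition vs stimulated/unstimulated controls, 4-parameter IC50.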

[1] = system: TNF-alpha secretion in human whole blood; test: Inhibition of TNF-alpha secretion in human whole blood (IFN-gamma primed, L18-MDP stimulated); format: cell-based; settings: Homo sapiens, 16 h, L18-MDP 100 ng/mL, read-out: Human Whole Blood TNFα IC50
Method: Materials: Assay medium consisted of RPMI 1640 medium (catalogue number: 11875119) and 10% heat inactivated FBS (Cytvia). U-PLEX Biomarker Assay (cat #K15067L-4) to detect levels of TNF-alpha was purchased from Meso Scale Discovery. Heparinized whole blood from healthy donors/volunteers was obtained through Research Blood Components, LLC.
Test compounds were prepared into a 10 mM DMSO solution and serially diluted into 9 points using a 3-fold dilution in a 96 well plate. A 10× working stock solution of recombinant human IFN-gamma (final concentration of 10 ng/mL) was prepared in assay medium and used to prepare a 10× solution of test compound. 20 μL of 10×IFN-gamma and test compound (or DMSO control) was added to a 96-well plate. 160 μL of heparinized whole blood obtained from healthy donors was dispensed into individual wells of the 96-well plate and placed on a plate shaker (150 rpm) and incubated for 60 min at 37° C. in a CO2 incubator. Subsequently, 20 μL of L18-MDP (final concentration of 100 ng/mL) was added to the appropriate wells and further incubated for 16 hours on a plate shaker (150 rpm) at 37° C. in a CO2 incubator. The final concentration of DMSO was 0.05% (v/v) in all wells. After incubation, 100 μL of DPBS was added per well, mixed by shaking at 500 rpm for 2 minutes, followed by centrifugation (400×g for 10 minutes) and collection of supernatants. TNF-alpha in supernatants was measured using MSD immunoassay (MesoScale Discovery). 4-parametric curve fit was used to determine the test compound concentration that results in 50% reduction of TNF-alpha concentration in supernatant relative to assay controls.

[2] = target: T2, RIPK2 and XIAP protein-protein interaction (Homo sapiens, UniProt O43353); test: Inhibition of the interaction of RIPK2 with XIAP (NanoBRET in HEK293T cells); format: cell-based; settings: RIPK2 HaloTag / XIAP NanoLuc, read-out: NanoBRET Scaffolding IC50
T2 construct: the N-terminus of full-length RIPK2 was appended with the HaloTag fusion protein; expressed in transfected cells; host or cells: HEK293T
T2 sequence (O43353 whole entry, the tested form may be a part): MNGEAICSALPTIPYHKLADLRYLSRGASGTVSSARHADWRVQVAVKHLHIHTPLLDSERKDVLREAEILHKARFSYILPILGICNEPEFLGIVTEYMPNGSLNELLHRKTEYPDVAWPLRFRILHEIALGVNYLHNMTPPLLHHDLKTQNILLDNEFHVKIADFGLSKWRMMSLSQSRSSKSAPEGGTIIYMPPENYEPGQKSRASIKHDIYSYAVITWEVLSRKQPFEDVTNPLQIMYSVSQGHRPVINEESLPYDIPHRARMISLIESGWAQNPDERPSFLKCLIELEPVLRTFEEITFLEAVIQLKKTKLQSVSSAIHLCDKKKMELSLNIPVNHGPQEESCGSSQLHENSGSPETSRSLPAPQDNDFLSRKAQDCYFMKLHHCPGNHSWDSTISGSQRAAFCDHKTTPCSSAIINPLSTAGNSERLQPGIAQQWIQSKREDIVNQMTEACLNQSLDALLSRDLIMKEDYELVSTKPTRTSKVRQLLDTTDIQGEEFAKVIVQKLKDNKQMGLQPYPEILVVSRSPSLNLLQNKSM
In short: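 HEK293T cells transiently co-transfected with HaloTag-RIPK2 (N-terminal) and XIAP-NanoLuc (C-terminal) full-length fusions, grown 24 h at 37° C. in Opti-MEM with 4% FBS. Compounds tested as 10-point 3-fold dilutions; NanoBRET ratio taken as 618 nm acceptor over 460 nm donor emission.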

T1 sequence (O43353 1-299 limits assumed): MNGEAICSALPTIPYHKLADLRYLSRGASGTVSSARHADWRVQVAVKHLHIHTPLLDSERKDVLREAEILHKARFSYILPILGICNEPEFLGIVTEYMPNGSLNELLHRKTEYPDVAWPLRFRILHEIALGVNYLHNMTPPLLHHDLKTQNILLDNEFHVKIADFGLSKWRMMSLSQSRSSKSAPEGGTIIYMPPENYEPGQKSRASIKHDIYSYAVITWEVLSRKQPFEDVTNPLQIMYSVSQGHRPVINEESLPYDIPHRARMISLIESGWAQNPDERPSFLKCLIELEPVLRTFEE

Row | IC50 (RIPK2 enzyme) | IC50 (human NOD2 signaling) | IC50 [1] | IC50 [2] | Structure (SMILES)
1 | < 2.5 nM | 38.1 nM | 6 nM | 465 nM | Cc1cc(CC(=O)Nc2cnn(C(C)(C)C)c2)ccc1Oc1ccnc2ccc(P(C)(C)=O)cc12 [Compound 179, N-(1-(tert-butyl)-1H-pyrazol-4-yl)-2-(4-((6-(dimethylphosphoryl)quinolin-4-yl)oxy)-3-methylphenyl) acetamide]
2 | < 2.5 nM | 6.6 nM | 40 nM | 132 nM | CC(C)(C)n1cc(NC(=O)Cc2ccc(Oc3ccnc4ccc(S(C)(=O)=O)cc34)c(C(F)F)c2)cn1 [Compound 92, N-(1-(tert-butyl)-1H-pyrazol-4-yl)-2-(3-(difluoromethyl)-4-((6-(methylsulfonyl)quinolin-4-yl)oxy)phenyl)acetamide]
3 | < 2.5 nM | 2 nM | 14 nM | 18 nM | Cc1cc(CC(=O)Nc2noc(C(C)(C)C)n2)ccc1Oc1ccnc2ccc(S(C)(=O)=O)cc12 [Compound 182, N-(5-(tert-butyl)-1,2,4-oxadiazol-3-yl)-2-(3-methyl-4-((6-(methylsulfonyl)quinolin-4-yl)oxy)phenyl) acetamide]
4 | < 2.5 nM | 2.9 nM | 37 nM | 20 nM | Cc1cc(CC(=O)Nc2cnn(C34CC(C3)C4)c2)ccc1Oc1ccnc2ccc(S(C)(=O)=O)cc12 [Compound 239, N-(1-(bicyclo[1.1.1]pentan-1-yl)-1H-pyrazol-4-yl)-2-(3-methyl-4-((6-(methylsulfonyl)quinolin-4-yl)oxy)phenyl)acetamide]
5 | < 2.5 nM | 7.2 nM | 7 nM | 174 nM | Cc1cc(CC(=O)Nc2cnn(C(C)(C)C)c2)ccc1Oc1ncnc2ccc(CN3CCNCC3)cc12 [Compound 253, N-(1-(tert-butyl)-1H-pyrazol-4-yl)-2-(3-methyl-4-((6-(piperazin-1-ylmethyl)quinazolin-4-yl)oxy)phenyl)acetamide]
6 | < 2.5 nM | 2.5 nM | 13 nM | 27 nM | COc1cc2nccc(Oc3ccc(CC(=O)Nc4cnn(C(C)(C)C)c4)cc3C(F)F)c2cc1S(C)(=O)=O [Compound 413, N-(1-(tert-butyl)-1H-pyrazol-4-yl)-2-(3-(difluoromethyl)-4-((7-methoxy-6-(methylsulfonyl)quinolin-4-yl)oxy)phenyl) acetamide]
7 | < 2.5 nM | 3.7 nM | 5.9 nM | 22 nM | [2H]C([2H])([2H])NC(=O)c1ccc2nccc(Oc3cc(F)c(CC(=O)Nc4cnn(C(C)(C)C)c4)cc3C)c2c1 [Compound 492, 4-(4-(2-((1-(tert-butyl)-1H-pyrazol-4-yl)amino)-2-oxoethyl)-5-fluoro-2-methylphenoxy)-N-(methyl-d3)quinoline-6-carboxamide]
8 | 13.4 nM | 32.7 nM | 7 nM | 37 nM | CN1CCC(Oc2ccc3nccc(Oc4cnc(CC(=O)Nc5cnn(C(C)(C)C)c5)c(F)c4)c3c2)CC1 [Compound 78, N-(1-(tert-butyl)-1H-pyrazol-4-yl)-2-(3-fluoro-5-((6-((1-methylpiperidin-4-yl)oxy)quinolin-4-yl)oxy)pyridin-2-yl)acetamide]
9 | < 2.5 nM | 1.3 nM | 8 nM | – | CCS(=O)(=O)c1ccc2nccc(Oc3cc(F)c(CC(=O)Nc4cnn(C(C)(C)C)c4)cc3C)c2c1 [Compound 306, N-(1-(tert-butyl)-1H-pyrazol-4-yl)-2-(4-((6-(ethylsulfonyl)quinolin-4-yl)oxy)-2-fluoro-5-methylphenyl)acetamide]
